Reference: patent EP0584797A2, “Novel cephalosporin compounds and processes for the preparation thereof” (LUCKY LTD., priority 1992, dated 1994)
Converted amounts (≈) assume the structure as drawn.

Legend:
Assay in all cases: minimal inhibitory concentration, two-fold agar dilution
Format in all cases: cell-based
[1] = tested on: Pseudomonas aeruginosa ATCC 25619; conditions: ATCC25619, Muller-Hinton agar, 37°C, 20 hours, read-out: MIC values against the standard strains
Method: (§1) These MIC values were taken by employing a two-fold dilution method: that is, two-fold serial dilutions of each of the test compounds were made and dispersed in a Muller-Hinton agar medium; 2µl of the standard test strain which had the 10⁷ CFU(Colony Forming Unit) per ml was inoculated on the medium; and these were incubated at 37°C for 20 hours.

[2] = tested on: Staphylococcus aureus ATCC 6538p; conditions: ATCC6538P, Muller-Hinton agar, 37°C, 20 hours, read-out: MIC values against the standard strains
Method: as §1

[3] = tested on: Escherichia coli ATCC 10536; conditions: ATCC10536, Muller-Hinton agar, 37°C, 20 hours, read-out: MIC values against the standard strains
Method: as §1

[4] = tested on: Bacillus megaterium ATCC 9885; conditions: Priestia megaterium, ATCC9885; Muller-Hinton agar; 37°C; 20 hours; read-out: MIC values against the standard strains
Method: as §1

[5] = tested on: Escherichia coli ATCC 25922; conditions: ATCC25922, Muller-Hinton agar, 37°C, 20 hours, read-out: MIC values against the standard strains
Method: as §1

[6] = tested on: Micrococcus luteus ATCC 9341; conditions: ATCC9341, Muller-Hinton agar, 37°C, 20 hours, read-out: MIC values against the standard strains
Method: as §1

[7] = tested on: Serratia marcescens ATCC 27117; conditions: ATCC27117, Muller-Hinton agar, 37°C, 20 hours, read-out: MIC values against the standard strains
Method: as §1

[8] = tested on: Proteus mirabilis ATCC 25933; conditions: ATCC25933, Muller-Hinton agar, 37°C, 20 hours, read-out: MIC values against the standard strains
Method: as §1

[9] = tested on: Shigella flexneri ATCC 11836; conditions: ATCC11836, Muller-Hinton agar, 37°C, 20 hours, read-out: MIC values against the standard strains
Method: as §1

[10] = tested on: Klebsiella pneumoniae ATCC 10031; conditions: ATCC10031, Muller-Hinton agar, 37°C, 20 hours, read-out: MIC values against the standard strains
Method: as §1

[11] = tested on: Staphylococcus epidermidis ATCC 12228; conditions: ATCC12228, Muller-Hinton agar, 37°C, 20 hours, read-out: MIC values against the standard strains
Method: as §1

[12] = tested on: Enterobacter cloacae ATCC 27508; conditions: ATCC27508, Muller-Hinton agar, 37°C, 20 hours, read-out: MIC values against the standard strains
Method: as §1

[13] = tested on: Providencia rettgeri ATCC 9250; conditions: ATCC9250, Muller-Hinton agar, 37°C, 20 hours, read-out: MIC values against the standard strains
Method: as §1

[14] = tested on: Staphylococcus aureus ATCC 10537; conditions: ATCC10537, Muller-Hinton agar, 37°C, 20 hours, read-out: MIC values against the standard strains
Method: as §1

[15] = tested on: Morganella morganii ATCC 8076h; conditions: ATCC8076H, Muller-Hinton agar, 37°C, 20 hours, read-out: MIC values against the standard strains
Method: as §1

[16] = tested on: Proteus vulgaris ATCC 6059; conditions: ATCC6059, Muller-Hinton agar, 37°C, 20 hours, read-out: MIC values against the standard strains
Method: as §1

[17] = tested on: Streptococcus faecalis ATCC 29212; conditions: Enterococcus faecalis, ATCC29212; Muller-Hinton agar; 37°C; 20 hours; read-out: MIC values against the standard strains
Method: as §1

[18] = tested on: Salmonella typhimurium ATCC 14028; conditions: Salmonella enterica; Muller-Hinton agar; 37°C; 20 hours; read-out: MIC values against the standard strains
Method: as §1

[19] = tested on: Pseudomonas aeruginosa ATCC 10145; conditions: ATCC10145, Muller-Hinton agar, 37°C, 20 hours, read-out: MIC values against the standard strains
Method: as §1

[20] = tested on: Bacillus cereus ATCC 11778; conditions: ATCC11778, Muller-Hinton agar, 37°C, 20 hours, read-out: MIC values against the standard strains
Method: as §1

[21] = tested on: Shigella sonnei ATCC 11060; conditions: ATCC11060, Muller-Hinton agar, 37°C, 20 hours, read-out: MIC values against the standard strains
Method: as §1

[22] = tested on: Acinetobacter calcoaceticus ATCC 15473; conditions: ATCC15473, Muller-Hinton agar, 37°C, 20 hours, read-out: MIC values against the standard strains
Method: as §1

[23] = tested on: Citrobacter freundii ATCC 8090; conditions: ATCC8090, Muller-Hinton agar, 37°C, 20 hours, read-out: MIC values against the standard strains
Method: as §1

[24] = tested on: Pseudomonas aeruginosa ATCC 27853; conditions: ATCC27853, Muller-Hinton agar, 37°C, 20 hours, read-out: MIC values against the standard strains
Method: as §1

[25] = tested on: Enterobacter aerogenes ATCC 29751; conditions: Klebsiella aerogenes, ATCC29751; Muller-Hinton agar; 37°C; 20 hours; read-out: MIC values against the standard strains
Method: as §1

Molecule `CCO/N=C(\C(=O)N[C@@H]1C(=O)N2C(C(=O)[O-])=C(CSc3nc(N)c4cccnc4[n+]3C)CS[C@H]12)c1csc(N)n1` [Example 31, 7-[(Z)-2-(2-aminothiazol-4-yl)-2-(ethoxyimino)acetamido]-3-(6-amino-3-methylpyrido[5,6,e]pyrimidinium-4-yl)thiomethyl-3-cephem-4-carboxylate] has an MIC [1] of 4 µg/mL (≈ 6.65 µM), an MIC [2] of 0.13 µg/mL (≈ 0.216 µM) and an MIC [3] of 0.25 µg/mL (≈ 0.415 µM). The MIC [4] was 0.13 µg/mL (≈ 0.216 µM), the MIC [5] was 0.13 µg/mL (≈ 0.216 µM) and the MIC [6] was 0.031 µg/mL (≈ 0.0515 µM). It also gave an MIC [7] of 1 µg/mL (≈ 1.66 µM), an MIC [8] of 1 µg/mL (≈ 1.66 µM) and an MIC [9] of 0.13 µg/mL (≈ 0.216 µM). The MIC [10] was no more than 0.008 µg/mL, the MIC [11] was 0.063 µg/mL (≈ 0.105 µM) and the MIC [12] was 0.016 µg/mL (≈ 0.0266 µM). The MIC [13] was 0.016 µg/mL (≈ 0.0266 µM), the MIC [14] was 0.13 µg/mL (≈ 0.216 µM) and the MIC [15] was 0.016 µg/mL (≈ 0.0266 µM). The MIC [16] was 1 µg/mL (≈ 1.66 µM), the MIC [17] was 16 µg/mL (≈ 26.6 µM) and the MIC [18] was 1 µg/mL (≈ 1.66 µM). The MIC [19] was 32 µg/mL (≈ 53.2 µM), the MIC [20] was 32 µg/mL (≈ 53.2 µM) and the MIC [21] was 0.25 µg/mL (≈ 0.415 µM). For the same molecule, the MIC [22] was 16 µg/mL (≈ 26.6 µM), the MIC [23] was 0.25 µg/mL (≈ 0.415 µM) and the MIC [24] was 16 µg/mL (≈ 26.6 µM). It also gave an MIC [25] of 0.5 µg/mL (≈ 0.831 µM).

In the case of `CC[C@@H](O/N=C(\C(=O)N[C@@H]1C(=O)N2C(C(=O)[O-])=C(CSc3nc(N)cc[n+]3N)CS[C@H]12)c1csc(N)n1)C(=O)O` [Example 88-b, 7-[(Z)-2-(2-aminothiazol-4-yl)-2-{(R)-1-carboxyprop-1-oxyimino}acetamido]-3-(1,4-diaminopyrimidinium-2-yl)thiomethyl-3-cephem-4-carboxylate], the MIC [1] is reported as 1 µg/mL (≈ 1.64 µM), the MIC [2] is reported as 4 µg/mL (≈ 6.56 µM) and the MIC [3] is reported as 0.063 µg/mL (≈ 0.103 µM). The MIC [4] was 1 µg/mL (≈ 1.64 µM), the MIC [5] was 0.031 µg/mL (≈ 0.0508 µM) and the MIC [6] was 1 µg/mL (≈ 1.64 µM). The MIC [7] was 0.25 µg/mL (≈ 0.41 µM), the MIC [9] was 0.031 µg/mL (≈ 0.0508 µM) and the MIC [10] was 0.031 µg/mL (≈ 0.0508 µM). The MIC [11] was 2 µg/mL (≈ 3.28 µM), the MIC [12] was 0.016 µg/mL (≈ 0.0262 µM) and the MIC [13] was no more than 0.008 µg/mL. It also gave an MIC [14] of 4 µg/mL (≈ 6.56 µM), an MIC [15] of no more than 0.008 µg/mL and an MIC [17] greater than 128 µg/mL. The MIC [18] was 0.25 µg/mL (≈ 0.41 µM), the MIC [19] was 2 µg/mL (≈ 3.28 µM) and the MIC [20] was 128 µg/mL (≈ 210 µM). It also gave an MIC [21] of 0.063 µg/mL (≈ 0.103 µM), an MIC [22] of 8 µg/mL (≈ 13.1 µM) and an MIC [23] of 0.063 µg/mL (≈ 0.103 µM). For the same molecule, the MIC [24] was 2 µg/mL (≈ 3.28 µM) and the MIC [25] was 1 µg/mL (≈ 1.64 µM).

`C[C@@H](O/N=C(\C(=O)N[C@@H]1C(=O)N2C(C(=O)[O-])=C(CSc3nc(N)c(N)c(N)[n+]3C)CS[C@H]12)c1csc(N)n1)C(=O)O` [Example 82-b, 7-[(Z)-2-(2-aminothiazol-4-yl)-2-{1-carboxyeth-1-oxyimino}acetamido]-3-(4,5,6-triamino-1-methylpyrimidinium-2-yl)thiomethyl-3-cephem-4-carboxylate] was tested, and the MIC [1] was 1 µg/mL (≈ 1.6 µM), the MIC [2] was 8 µg/mL (≈ 12.8 µM) and the MIC [3] was 0.031 µg/mL (≈ 0.0496 µM). It also gave an MIC [4] of 0.5 µg/mL (≈ 0.8 µM), an MIC [5] of 0.031 µg/mL (≈ 0.0496 µM) and an MIC [6] of 0.5 µg/mL (≈ 0.8 µM). The MIC [7] was 0.063 µg/mL (≈ 0.101 µM), the MIC [8] was 0.031 µg/mL (≈ 0.0496 µM) and the MIC [9] was 0.031 µg/mL (≈ 0.0496 µM). The MIC [10] was 0.031 µg/mL (≈ 0.0496 µM), the MIC [11] was 2 µg/mL (≈ 3.2 µM) and the MIC [12] was no more than 0.008 µg/mL. For the same molecule, the MIC [13] was no more than 0.008 µg/mL, the MIC [14] was 2 µg/mL (≈ 3.2 µM) and the MIC [15] was no more than 0.008 µg/mL. The MIC [16] was 0.031 µg/mL (≈ 0.0496 µM), the MIC [17] was greater than 128 µg/mL and the MIC [18] was 0.063 µg/mL (≈ 0.101 µM). It also gave an MIC [19] of 2 µg/mL (≈ 3.2 µM), an MIC [20] of 128 µg/mL (≈ 205 µM) and an MIC [22] of 8 µg/mL (≈ 12.8 µM). The MIC [23] was 0.063 µg/mL (≈ 0.101 µM), the MIC [24] was 1 µg/mL (≈ 1.6 µM) and the MIC [25] was 0.5 µg/mL (≈ 0.8 µM).
